According to US20260070899A1, “N-(2-(4-CYANOTHIAZOLIDIN-3-YL)-2-OXOETHYL)-QUINOLINE-4-CARBOXAMIDES” (AstraZeneca AB, priority 2022, published 2026):
≈ marks a conversion by molar mass, not a printed value.

Tests used:
[1] = target: T1, Prolyl endopeptidase, Prolyl Oligopeptidase (hPREP) (Homo sapiens, UniProt P48147); assay: biochemical
T1 sequence (P48147 1-710): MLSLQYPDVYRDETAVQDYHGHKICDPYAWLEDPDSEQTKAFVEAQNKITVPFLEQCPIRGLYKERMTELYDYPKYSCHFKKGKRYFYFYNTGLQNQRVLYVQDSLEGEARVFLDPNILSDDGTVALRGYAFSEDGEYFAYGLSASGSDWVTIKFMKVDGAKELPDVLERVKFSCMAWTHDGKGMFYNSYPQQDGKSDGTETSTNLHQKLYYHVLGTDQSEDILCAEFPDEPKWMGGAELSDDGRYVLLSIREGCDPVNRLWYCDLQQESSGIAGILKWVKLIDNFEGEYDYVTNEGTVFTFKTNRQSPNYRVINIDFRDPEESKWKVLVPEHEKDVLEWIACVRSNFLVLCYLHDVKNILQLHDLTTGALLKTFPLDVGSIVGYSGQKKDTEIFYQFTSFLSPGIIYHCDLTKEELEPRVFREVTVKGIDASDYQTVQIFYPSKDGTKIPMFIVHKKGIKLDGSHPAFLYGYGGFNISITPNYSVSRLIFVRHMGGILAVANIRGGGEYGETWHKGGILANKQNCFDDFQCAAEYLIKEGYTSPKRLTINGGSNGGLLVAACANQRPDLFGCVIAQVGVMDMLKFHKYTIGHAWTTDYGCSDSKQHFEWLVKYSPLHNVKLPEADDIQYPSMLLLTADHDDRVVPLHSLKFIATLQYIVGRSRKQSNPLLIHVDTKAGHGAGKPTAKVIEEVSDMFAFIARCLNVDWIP

[2] = target: T2, hFAP (Homo sapiens, UniProt Q12884); assay: biochemical
T2 sequence (Q12884 38-760): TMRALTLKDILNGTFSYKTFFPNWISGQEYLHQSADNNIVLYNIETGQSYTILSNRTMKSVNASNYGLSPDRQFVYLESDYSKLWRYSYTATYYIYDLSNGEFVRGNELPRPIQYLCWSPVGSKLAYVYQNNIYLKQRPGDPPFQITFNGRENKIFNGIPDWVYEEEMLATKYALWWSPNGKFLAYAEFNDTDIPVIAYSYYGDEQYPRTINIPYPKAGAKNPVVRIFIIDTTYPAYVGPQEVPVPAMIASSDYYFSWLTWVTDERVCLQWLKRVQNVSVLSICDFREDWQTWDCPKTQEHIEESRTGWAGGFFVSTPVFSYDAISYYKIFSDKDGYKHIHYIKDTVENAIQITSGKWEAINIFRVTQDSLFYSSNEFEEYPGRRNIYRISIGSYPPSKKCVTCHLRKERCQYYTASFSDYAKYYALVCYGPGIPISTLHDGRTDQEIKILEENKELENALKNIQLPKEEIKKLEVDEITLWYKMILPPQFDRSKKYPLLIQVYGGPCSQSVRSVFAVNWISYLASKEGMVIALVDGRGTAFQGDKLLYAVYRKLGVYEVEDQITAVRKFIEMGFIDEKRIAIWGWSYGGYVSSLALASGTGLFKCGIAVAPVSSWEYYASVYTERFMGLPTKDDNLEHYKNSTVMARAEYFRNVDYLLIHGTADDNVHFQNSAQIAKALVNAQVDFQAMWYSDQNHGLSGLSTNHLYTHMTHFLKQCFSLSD
Experimental: 384 low volume black plates (Greiner #784076) were used. 4 μL, 0.48 nM enzyme solution (100 mM Tris HCl, 100 mM NaCl, 0.05% Chaps, pH 7.4) was added to 40 nL compounds (in DMSO) at 10 CR, 3 fold dilution series from 50 μM FAC. Plates were incubated for 15 min at rt in dark. 4 μL, 40 μM substrate solution (100 mM Tris HCl, 100 mM NaCl, 0.05% Chaps, pH 7.4) was added to each well. Plates were centrifuged at 1000 rpm and incubated for 30 min at rt in dark. The plates were read on a PHERAstar® reader with excitation 340 nm and emission 460 nm. Data were analyzed in Genedata Screener®. IC50 values were determined by plotting % inhibition versus log compound concentration and using a one site dose response model.

[3] = Metabolic stability in human liver microsomes (HLM); type: in vitro ADME; conditions: n = 1 or average (n = 2-3)
Experimental: Metabolic stability in HLM was measured as described in J Comput Aided Mol Des 2015, 29, 795.

[4] = test system: Rat Hepatocytes (rHep); assay: Metabolic stability in rat hepatocytes (rHep); type: in vitro ADME; conditions: n = 1 or geometric mean (n = 2-3)
Experimental: Metabolic stability in rat hepatocytes was measured as described in J Comput Aided Mol Des 2015, 29, 795.

[5] = target: T3, hFAP (M39-A757) (Homo sapiens, UniProt Q12884); assay: biochemical
T3 sequence (Q12884 39-757): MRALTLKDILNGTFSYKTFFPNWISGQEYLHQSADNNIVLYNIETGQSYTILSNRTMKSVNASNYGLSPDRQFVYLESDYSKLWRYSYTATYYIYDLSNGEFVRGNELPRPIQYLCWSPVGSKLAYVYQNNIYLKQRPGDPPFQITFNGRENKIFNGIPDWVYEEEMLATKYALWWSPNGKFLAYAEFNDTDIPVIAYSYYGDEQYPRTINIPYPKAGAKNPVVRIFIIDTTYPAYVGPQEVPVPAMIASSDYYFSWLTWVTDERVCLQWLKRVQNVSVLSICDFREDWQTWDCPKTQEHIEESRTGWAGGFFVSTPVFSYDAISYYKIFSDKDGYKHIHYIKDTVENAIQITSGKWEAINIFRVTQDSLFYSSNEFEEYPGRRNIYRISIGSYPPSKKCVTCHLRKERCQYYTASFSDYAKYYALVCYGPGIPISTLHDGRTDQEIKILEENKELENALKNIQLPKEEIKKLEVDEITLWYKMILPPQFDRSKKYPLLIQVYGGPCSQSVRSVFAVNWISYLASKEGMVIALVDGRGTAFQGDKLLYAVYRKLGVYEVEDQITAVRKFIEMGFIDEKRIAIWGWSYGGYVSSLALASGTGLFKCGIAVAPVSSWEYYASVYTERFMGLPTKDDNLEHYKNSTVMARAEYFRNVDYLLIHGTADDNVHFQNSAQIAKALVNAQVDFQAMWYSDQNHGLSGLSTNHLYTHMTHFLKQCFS
Experimental: Compounds were tested in a direct binding assay using 8K surface plasmon resonance biosensor (GE Healthcare) at 20° C. Immobilization of hFAP (M39-A757) on a CMD200M sensor chip (Xantec) was performed using standard amine coupling procedure in immobilization buffer (10 mM HEPES, 150 mM NaCl, 0.05% Tween20, pH 7.4). The surface was washed with 10 mM aq NaOH, 1M NaCl before being activated with EDC/NHS (GE Healthcare), followed by immobilization of hFAP (in 10 mM Acetate pH 5.0). Finally, the surface was deactivated by ethanolamine. Immobilization levels of hFAP were around 4000-6000 RU. The reference spot was treated as described, omitting the injection of hFAP. Compound concentration series were injected over the immobilized protein in increasing concentrations (2-500 nM) using single cycle kinetics in running buffer (20 mM TRIS, 150 mM NaCl, 0.05% Tween20, 1% DMSO, pH 7.4). Interaction models were fitted globally to the experimental traces, enabling determination of kon, koff and Kd.

[6] = Kinetic solubility; type: physicochemical; conditions: kinetic from dmso stock, n = 1 or average (n = 2-4)
Experimental: Kinetic solubility was measured as described in Comput Aided Mol Des 2015, 29, 795.

[7] = Caco-2 bidirectional (ABBA) permeability; type: in vitro ADME; conditions: human
Experimental: Caco-2 cell permeability was measured as described in Mol Pharm 2017, 14, 1601.
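Wherever Kd is given: surface plasmon resonance direct binding to hFAP amine-coupled on a sensor chip, rising compound concentrations by single cycle kinetics, Kd from global fit of interaction models.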

IC50 [1] [nM]	IC50 [2] [nM]	microsomal CLint [3] [µL/min/mg]	rHeps CLint [4] [μL/min/1E6]	Kd [5] [nM]	solubility [6] [µM]	Papp A→B ([7]; A to B, n = 1 or average (n = 2), read-out: Caco2 Bidirectional (ABBA) A to B Papp) [×10⁻⁶ cm/s]	Papp B→A ([7]; B to A, n = 1 or average (n = 2), read-out: Caco2 Bidirectional (ABBA) B to A Papp) [×10⁻⁶ cm/s]	efflux ratio ([7]; read-out: Caco2 Bidirectional (ABBA) Efflux Ratio)	SMILES
87	0.3	16	11	0.11	880 (≈ 349 µg/mL)	–	–	–	N#C[C@@H]1CSCN1C(=O)CNC(=O)c1ccnc2ccc(C3CCOC3)cc12 (mixture of isomers) [Example 67, N-(2-((R)-4-Cyanothiazolidin-3-yl)-2-oxoethyl)-6-((RS)-tetrahydrofuran-3-yl)quinoline-4-carboxamide]
460	–	> 300	140	0.12	78 (≈ 39.9 µg/mL)	–	–	–	N#C[C@@H]1CSCN1C(=O)CNC(=O)c1ccnc2ccc(C3(c4ccnc(C(F)(F)F)c4)CC3)cc12 [Example 13, (R)—N-(2-(4-Cyanothiazolidin-3-yl)-2-oxoethyl)-6-(1-(2-(trifluoromethyl)pyridin-4-yl)cyclopropyl)quinoline-4-carboxamide]
8.4	0.079	25	11	0.046	420 (≈ 165 µg/mL)	–	–	–	N#C[C@@H]1CSCN1C(=O)CNC(=O)c1ccnc2ccc(-c3ccoc3)cc12 [Example 14, (R)—N-(2-(4-Cyanothiazolidin-3-yl)-2-oxoethyl)-6-(furan-3-yl)quinoline-4-carboxamide]
8.3	–	100	7.9	140	500 (≈ 212 µg/mL)	–	–	–	CC1(c2ccc3nccc(C(=O)NCC(=O)N4CSC[C@H]4C#N)c3c2)CCOCC1 [Example 21, (R)—N-(2-(4-Cyanothiazolidin-3-yl)-2-oxoethyl)-6-(4-methyl-tetrahydro-2H-pyran-4-yl)quinoline-4-carboxamide]
32	0.52	9.8	12	1.4	> 1000	–	–	–	N#C[C@@H]1CSCN1C(=O)CNC(=O)c1ccnc2ccc(CF)cc12 [Example 29, (R)—N-(2-(4-cyanothiazolidin-3-yl)-2-oxoethyl)-6-(fluoromethyl)-quinoline-4-carboxamide]
600	0.25	29	21	0.13	> 1000	–	–	–	Cc1cc(Cc2ccc3nccc(C(=O)NCC(=O)N4CSC[C@H]4C#N)c3c2)n(C)n1 [Example 40, (R)—N-(2-(4-Cyanothiazolidin-3-yl)-2-oxoethyl)-6-((1,3-dimethyl-1H-pyrazol-5-yl)methyl)quinoline-4-carboxamide]
180	0.27	12	23	0.2	190 (≈ 80.1 µg/mL)	–	–	–	Cc1cc(Cc2ccc3nccc(C(=O)NCC(=O)N4CSC[C@H]4C#N)c3c2)no1 [Example 42, (R)—N-(2-(4-Cyanothiazolidin-3-yl)-2-oxoethyl)-6-((5-methylisoxazol-3-yl)methyl)quinoline-4-carboxamide]
370	0.094	100	78	0.39	60 (≈ 27.5 µg/mL)	–	–	–	Cc1ccc(C2(c3ccc4nccc(C(=O)NCC(=O)N5CSC[C@H]5C#N)c4c3)CC2)cn1 [Example 43, (R)—N-(2-(4-Cyanothiazolidin-3-yl)-2-oxoethyl)-6-(1-(6-methylpyridin-3-yl)cyclopropyl)quinoline-4-carboxamide]
150	–	70	21	0.13	250 (≈ 112 µg/mL)	–	–	–	Cc1cc(C2(c3ccc4nccc(C(=O)NCC(=O)N5CSC[C@H]5C#N)c4c3)CC2)no1 [Example 45, (R)—N-(2-(4-Cyanothiazolidin-3-yl)-2-oxoethyl)-6-(1-(5-methylisoxazol-3-yl)cyclopropyl)quinoline-4-carboxamide]
430	–	30	20	–	480 (≈ 209 µg/mL)	0.24	21	90	N#C[C@@H]1CSCN1C(=O)CNC(=O)c1ccnc2ccc(C3(C#N)CCOCC3)cc12 [Example 59, (R)-6-(4-Cyanotetrahydro-2H-pyran-4-yl)-N-(2-(4-cyanothiazolidin-3-yl)-2-oxoethyl)quinoline-4-carboxamide]
15	0.43	16	8.7	0.4	> 1000	–	–	–	N#C[C@@H]1CSCN1C(=O)CNC(=O)c1ccnc2ccc(C(F)F)cc12 [Example 71, (R)—N-(2-(4-Cyanothiazolidin-3-yl)-2-oxoethyl)-6-(difluoromethyl)-quinoline-4-carboxamide]
540	0.2	63	18	0.013	14 (≈ 6.87 µg/mL)	–	–	–	COCCCOc1ccc(-c2ccc3nccc(C(=O)NCC(=O)N4CSC[C@H]4C#N)c3c2)cc1 [Example 72, (R)—N-(2-(4-Cyanothiazolidin-3-yl)-2-oxoethyl)-6-(4-(3-methoxy-propoxy)phenyl)quinoline-4-carboxamide]
580	1.3	140	34	2	900 (≈ 369 µg/mL)	–	–	–	CCOC1(c2ccc3nccc(C(=O)NCC(=O)N4CSC[C@H]4C#N)c3c2)CC1 [Example 76, (R)—N-(2-(4-Cyanothiazolidin-3-yl)-2-oxoethyl)-6-(1-ethoxycyclopropyl)quinoline-4-carboxamide]
38	0.59	58	44	1.4	470 (≈ 172 µg/mL)	–	–	–	N#C[C@@H]1CSCN1C(=O)CNC(=O)c1ccnc2ccc(C3CC3)cc12 [Example 77, (R)—N-(2-(4-Cyanothiazolidin-3-yl)-2-oxoethyl)-6-cyclopropylquinoline-4-carboxamide]
